US10160755B2 (Plexxikon Inc., priority 2015, dated 2018)

target: c-Kit (Homo sapiens, UniProt P10721); test: c-Kit biochemical assay (per US 2007/0032519)
Summary of the method: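 Biochemical kinase inhibition run per US 2007/0032519; values reported as binned IC50 ranges (0.0001–1 μM, 1–10 μM, 10–200 μM).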

c-Kit, sequence (P10721 26-976): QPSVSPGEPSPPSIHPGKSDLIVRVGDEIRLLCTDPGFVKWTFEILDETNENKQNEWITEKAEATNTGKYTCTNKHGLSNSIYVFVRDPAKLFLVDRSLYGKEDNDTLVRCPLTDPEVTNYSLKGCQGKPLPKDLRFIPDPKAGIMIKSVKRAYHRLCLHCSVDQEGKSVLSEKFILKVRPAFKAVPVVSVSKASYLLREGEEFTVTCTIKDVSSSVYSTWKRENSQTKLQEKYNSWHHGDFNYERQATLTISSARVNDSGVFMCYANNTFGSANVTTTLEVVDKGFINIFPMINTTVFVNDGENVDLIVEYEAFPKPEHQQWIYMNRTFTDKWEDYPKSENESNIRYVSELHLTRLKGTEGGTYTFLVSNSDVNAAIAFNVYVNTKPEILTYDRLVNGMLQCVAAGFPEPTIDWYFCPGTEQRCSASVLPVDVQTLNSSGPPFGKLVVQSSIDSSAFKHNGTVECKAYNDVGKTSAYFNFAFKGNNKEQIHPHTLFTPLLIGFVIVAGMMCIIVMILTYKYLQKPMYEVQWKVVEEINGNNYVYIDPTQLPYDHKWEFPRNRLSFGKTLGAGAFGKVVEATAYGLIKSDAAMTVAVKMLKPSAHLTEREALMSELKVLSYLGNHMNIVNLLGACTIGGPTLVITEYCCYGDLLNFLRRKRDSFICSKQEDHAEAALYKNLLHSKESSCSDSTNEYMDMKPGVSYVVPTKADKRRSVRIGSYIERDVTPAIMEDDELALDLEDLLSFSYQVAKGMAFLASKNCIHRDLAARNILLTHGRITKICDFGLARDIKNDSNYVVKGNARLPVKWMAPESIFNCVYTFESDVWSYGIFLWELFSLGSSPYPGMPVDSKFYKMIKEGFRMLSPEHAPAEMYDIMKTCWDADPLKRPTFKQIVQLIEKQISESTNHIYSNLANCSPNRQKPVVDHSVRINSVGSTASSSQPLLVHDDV

IC50 [µM]	Compound
10 to 200	COc1cnc2[nH]cc(-c3ccc4ncn(-c5cccc(F)c5)c4c3)c2c1 [P-128, 1-(3-fluorophenyl)-6-(5-methoxy-1H-pyrrolo[2,3-b]pyridin-3-yl)benzimidazole]
10 to 200	COc1cnc2[nH]cc(-c3ccc4ncn(-c5cccc(C#N)c5)c4c3)c2c1 [P-135, 3-[6-(5-methoxy-1H-pyrrolo[2,3-b]pyridin-3-yl)benzimidazol-1-yl]benzonitrile]
0.0001 to 1	CC(C)(C)n1cnc2ccc(-c3c[nH]c4ncc(-c5cccc(NS(C)(=O)=O)c5)nc34)cc21 [P-097, N-[3-[7-(3-tert-butylbenzimidazol-5-yl)-5H-pyrrolo[2,3-b]pyrazin-2-yl]phenyl]methanesulfonamide]
1 to 10	CN(c1cccc(-c2cnc3[nH]cc(-c4ccc5ncn(C)c5c4)c3c2)c1)S(C)(=O)=O [P-120, N-methyl-N-[3-[3-(3-methylbenzimidazol-5-yl)-1H-pyrrolo[2,3-b]pyridin-5-yl]phenyl]methanesulfonamide]
1 to 10	COc1cc(-c2cnc3[nH]cc(-c4ccc5ncn(C(C)(C)C)c5c4)c3n2)ccn1 [P-099, 7-(3-tert-butylbenzimidazol-5-yl)-2-(2-methoxy-4-pyridyl)-5H-pyrrolo[2,3-b]pyrazine]
10 to 200	COc1cnc2[nH]cc(-c3ccc4ncn(-c5ccc(F)c(C)c5)c4c3)c2c1 [P-129, 1-(4-fluoro-3-methyl-phenyl)-6-(5-methoxy-1H-pyrrolo[2,3-b]pyridin-3-yl)benzimidazole]
